Reference: paper PMC7790557, “Pleiotropic Properties of Amphiphilic Dihydropyridines, Dihydropyridones, and Aminovinylcarbonyl Compounds” (Oxidative Medicine and Cellular Longevity, 2020)
Where two headings read alike, the source gives them in different places.

Experiments:
[1] = cited from earlier work
[2] = in vitro; assay type: cell-based; details: human and mouse, summarises both cell lines, CV and MTT, read-out: cytotoxicity on cancer cell lines HT-1080 and MH-22A
Description: (§1) After incubation, the staining solution was removed. The cells were washed 4 times with water.

[3] = system: MH-22A (mouse hepatoma); assay: Cytotoxicity, crystal violet (CV) assay, MH-22A; assay type: cell-based; details: Mus musculus, read-out: MH-22A IC50 (CV)
Description: as §1

[4] = Cytotoxicity, crystal violet (CV) assay, MH-22A; assay type: cell-based, mouse; details: mouse, summarises CV and MTT values, read-out: cytotoxicity towards MH-22A cells; for IC50 at 72 h: MH-22A cells (hepatoma)
Description: as §1

[5] = system: HT-1080 (human lung fibrosarcoma); assay: Cytotoxicity, MTT assay, HT-1080; assay type: cell-based; details: Homo sapiens, read-out: HT-1080 IC50 (MTT)
Source text: (§2) Reduction takes place only when mitochondrial reductase enzymes are active, and therefore, conversion is directly related to the number of viable cells which can be quantified by the absorbance of the solution (between λ = 500 and 600 nm) using a spectrophotometer.

[6] = system: HT-1080 (human lung fibrosarcoma); assay: Cytotoxicity, crystal violet (CV) assay, HT-1080; details: Homo sapiens, HT-1080, 72 h, read-out: HT-1080 IC50 (CV)
Description: (§3) IC50 is the compound concentration (μg/ml) at which 50% of the cells die. […] CV staining can be used to quantify the total DNA of the remaining population and thus is used to determine the number of live cells based on the concentration of the dye which remains after staining.
(§4) Tumor cell lines HT-1080 (human connective tissue fibrosarcoma, ATCC® CCL-121™) and MH-22A (mouse hepatocarcinoma, ECACC, cat. Nr. 96121721) were used.
(§5) HT-1080 and MH-22A cells were seeded in 96-well plates in Dulbecco's modified Eagle's (DMEM) medium containing 10% fetal bovine serum and 4 mM L-glutamine, without antibiotics, and cultivated for 72 h by exposure to different concentrations of compounds. Cell viability was measured using 3-(4,5-dimethylthiazol-2-yl)-2,5-diphenyltetrazolinium bromide (MTT). In brief, after incubating with compounds, the culture medium was removed and fresh medium with 0.2 mg/ml MTT was added in each well of the plate. After incubation (3 h, 37°C, 5% CO2), the medium with MTT was removed, and 200 μl DMSO was added at once to each sample. The samples were tested at 540 nm on a Tecan Infinite M1000 multiplate reader. The IC50 was calculated using the program GraphPad Prism® 3.0.
(§6) For the CV assay, cells were stained with 0.05% crystal violet (Sigma-Aldrich) in 30% methanol for 20 minutes at room temperature. After incubation, the staining solution was removed. The cells were washed 4 times with water. For dye solubilization, 200 μl of a solubilizing solution (0.1 M citrate buffer, pH 4.2 in 50% ethanol; 1 : 1 v/v) was added. The absorbance of the solution was measured using a Tecan Infinite M1000 multiplate spectrophotometer at a wavelength of 570 nm [21].

[7] = Cytotoxicity, crystal violet (CV) assay, HT-1080; details: human
Description: as §3, §4, §5, §6

[8] = system: MH-22A (mouse hepatoma); assay: Cytotoxicity, MTT assay, MH-22A; assay type: cell-based; details: Mus musculus, read-out: MH-22A IC50 (MTT)
Source text: as §2

[9] = Electrochemical oxidation potentials, cyclic voltammetry; assay type: physicochemical; details: glassy carbon electrode, dry acetonitrile; for Oxidation potential E^ox: Table 4, vs Ag/Ag+, 0.1 M TBABF4, tested as perchlorates; for electrooxidation potential: cyclic voltammetry
Description: A stationary glassy carbon disk electrode (d = 0.5 mm) served as the working electrode, while the counterelectrode was a Pt wire. The oxidation potentials were measured relative to a Ag/Ag^+ reference electrode. Acetonitrile was dried over P2O5 and distilled; the distillate was stored over CaH2 and redistilled just before use. Recrystallized tetrabutylammonium tetrafluoroborate (TBABF4) was used as a supporting electrolyte at 0.1 M concentration.
The electrochemical oxidation of the selected compounds studied in this work was performed by cyclic voltammetry on a stationary glassy carbon electrode in dry acetonitrile; the data is presented in Table 4. The perchlorates of the tested amphiphiles were obtained from the corresponding bromides by treating their abs. MeOH solutions with excess of conc. HClO4 according to the procedure elaborated by Turovska et al..

[10] = system: NIH3T3 (mouse embryonic fibroblast); assay: Basal cytotoxicity test, Neutral Red Uptake (NRU) assay; details: for IC50: Mus musculus, NIH3T3, 24 h
[11] = system: cancer cell lines HT-1080 and MH-22A; assay: in vitro; assay type: cell-based
Description: as §1

[12] = in vitro; details: mouse
Source text: Data from the in vitro tests were used for estimating the starting dose for acute oral systemic toxicity tests in the rodent. The in vivo starting dose is an estimated LD50 value calculated by inserting the in vitroIC50 value into a regression formula: log LD50 (mM/kg) = 0.439 log IC50 (mM) + 0.621 [23–25]. […] Using an alternative in vitro method allows the comparison between possibly toxic new compounds and selecting compounds for further study vastly reducing the number of animal experiments.
Additionally, the compound influence on “normal” mouse fibroblasts (NIH3T3) was estimated for the studies of structure-activity relationships and exploration of the effect of substituents.

[13] = HT-1080, Table 1, 72 h exposure
[14] = read-out: NIH3T3 IC50 (NR), Table 1, 24 h exposure
[15] = HT-1080, Table 2, 72 h exposure

SMILES	IC50 [6] [µg/mL]	Oxidation potential E^ox [9] [V]	IC50 ([10]; read-out: NIH3T3 IC50 (NR)) [µg/mL]	IC50 ([3]; Table 1, 72 h exposure) [µg/mL]	IC50 at 72 h [4] [µg/mL]	IC50 [5, 13] [µg/mL]	IC50 at 72 h ([7]; HT-1080 cells (fibrosarcoma)) [µg/mL]	IC50 ([8]; Table 1, 72 h exposure) [µg/mL]	toxicity to noncancerous NIH3T3 cells (in words) [10]	cytotoxicity to cancer cell lines HT-1080 and MH-22A (in words) [11]	other results
CCOC(=O)C1=C(C)NC(C)=C(C(=O)OCC)C1 [Diludin, reference compound]	–	–	–	–	–	–	–	–	–	–	antiradical activity (ARA) [1]: 40%
CCCCCCCCCCCCOC(=O)C1=C(C[n+]2ccccc2)NC(C[n+]2ccccc2)=C(C(=O)OCCCCCCCCCCCC)C1c1ccccc1.[Br-].[Br-] [compound 10, 1,1'-((3,5-Bis((dodecyloxy)carbonyl)-4-phenyl-1,4-dihydropyridine-2,6-diyl)bis(methylene))bis(pyridin-1-ium) dibromide]	3 ± 0.5	1.58	100 ± 6	–	–	–	–	–	–	–	IC50 at 72 h [2]: 3 to 6 µg/mL; IC50 ([3]; 72 h): 6 ± 1 µg/mL; IC50 [4]: 3 to 6 µg/mL; IC50 ([5]; HT-1080, 72 h): 3 ± 0.3 µg/mL; IC50 at 72 h [7]: ~3 µg/mL; IC50 ([8]; 72 h): 3 ± 0.8 µg/mL; electrooxidation potential [9]: 1.57–1.58 V
CCCCCCCCCCCCOC(=O)C1=C(C[n+]2ccc(C)cc2)NC(C[n+]2ccc(C)cc2)=C(C(=O)OCCCCCCCCCCCC)C1c1ccccc1.[Br-].[Br-] [compound 12, 1,1'-((3,5-Bis((dodecyloxy)carbonyl)-4-phenyl-1,4-dihydropyridine-2,6-diyl)bis(methylene))bis(4-methylpyridin-1-ium) dibromide]	10 ± 2	–	79 ± 11	40 ± 2	29 to 40	5 ± 1	5 to 10	29 ± 2	–	–	–
CCCCCCCCCCCCOC(=O)C1=C(C[n+]2cccc(C(C)=O)c2)NC(C[n+]2cccc(C(C)=O)c2)=C(C(=O)OCCCCCCCCCCCC)C1c1ccccc1.[Br-].[Br-] [compound 14, 1,1'-((3,5-Bis((dodecyloxy)carbonyl)-4-phenyl-1,4-dihydropyridine-2,6-diyl)bis(methylene))bis(3-acetylpyridin-1-ium) dibromide]	3 ± 0.4	–	922 ± 24	100 ± 13	50 to 100	3 ± 0.3	~3	49 ± 9	practically nontoxic	–	–
CCCCCCCCCCCCOC(=O)C1=C(C[n+]2ccncc2)NC(C[n+]2ccncc2)=C(C(=O)OCCCCCCCCCCCC)C1c1ccccc1 [compound 16, 1,1'-((3,5-Bis((dodecyloxy)carbonyl)-4-phenyl-1,4-dihydropyridine-2,6-diyl)bis(methylne))bis(pyrazin-1-ium) dibromide]	> 100	–	–	> 100	–	> 100	–	> 100	nontoxic	practically inert	IC50 [10, 14]: > 1000 µg/mL
CCCCCCCCCCCCOC(=O)C1=C(C[n+]2ccc(C(F)(F)F)cc2)NC(C[n+]2ccc(C(F)(F)F)cc2)=C(C(=O)OCCCCCCCCCCCC)C1c1ccccc1.[Br-].[Br-] [compound 21, 1,1'-((3,5-Bis((dodecyloxy)carbonyl)-4-phenyl-1,4-dihydropyridine-2,6-diyl)bis(methylene))bis(4-(trifluoromethyl)pyridin-1-ium) dibromide]	2 ± 0.3	1.63	12 ± 4	49 ± 8	19 to 49	4 ± 0.5	2 to 4	19 ± 6	–	–	electrooxidation potential [9]: 1.63 V
O=C(OCCCCCCCCCCCC(F)(F)F)C1=C(C[n+]2ccccc2)NC(C[n+]2ccccc2)=C(C(=O)OCCCCCCCCCCCC(F)(F)F)C1c1ccccc1.[O-][Cl+3]([O-])([O-])[O-].[O-][Cl+3]([O-])([O-])[O-] [compound 22, 1,1'-((4-phenyl-3,5-bis(((12,12,12-trifluorododecyl)oxy)carbonyl)-1,4-dihydropyridine-2,6-diyl)bis(methylene))bis(pyridin-1-ium) diperchlorate]	18 ± 5	1.57	–	10 ± 1	10 to 19	10 ± 2	10 to 18	19 ± 5	–	–	IC50 [10, 14]: 16 ± 3 µg/mL
O=C(OCCCCCCCCCCCC(F)(F)C(F)(F)C(F)(F)C(F)(F)C(F)(F)C(F)(F)C(F)(F)C(F)(F)F)C1=C(C[n+]2ccccc2)NC(C[n+]2ccccc2)=C(C(=O)OCCCCCCCCCCCC(F)(F)C(F)(F)C(F)(F)C(F)(F)C(F)(F)C(F)(F)C(F)(F)C(F)(F)F)C1c1ccccc1 [compound 25]	–	–	–	–	–	–	–	–	low toxicity	undetectable toxicity	–
CCCCCCCCCCCCOC(=O)c1c(C[n+]2ccccc2)nc(C[n+]2ccccc2)c(C(=O)OCCCCCCCCCCCC)c1-c1ccccc1.[Br-].[Br-] [compound 27, 1,1’-((3,5-Bis(dodecyloxycarbonyl)-4-phenylpyridine-2,6-diyl)bis(methylene))-bis(pyridin-1-ium)dibromide]	3.2 ± 0.8	–	900 ± 42	3 ± 0.3	–	3.1 ± 0.5	–	3.3 ± 0.4	not harmful at all	–	IC50 at 72 h ([2]; HT-1080 cells and MH-22A cells (the value covers both lines)): ~3 µg/mL; LD50 ([12]; LD50 (calculated, NIH3T3), calculated from NIH3T3 IC50): 3950 mg/kg
COC(=O)C1=C(C[n+]2ccccc2)NC(=O)CC1c1ccccc1OC(F)F.[Br-] (centres unmarked) [compound 28, 1-({4-[2-(Difluoromethoxy)phenyl]-3-(methoxycarbonyl)-6-oxo-1,4,5,6-tetrahydropyridin-2-yl}methyl)pyridinium bromide]	> 100	–	1130 ± 85	–	–	–	–	–	–	inert	IC50 ([3]; Table 2, 72 h exposure): > 100 µg/mL; IC50 [5, 15]: > 100 µg/mL; IC50 ([8]; Table 2, 72 h exposure): > 100 µg/mL
COC(=O)C1=C(C[n+]2ccccc2)N(Cc2ccccc2)C(=O)CC1.[O-][Cl+3]([O-])([O-])[O-] [compound 29, 1-{[1-Benzyl-3-(methoxycarbonyl)-6-oxo-1,4,5,6-tetrahydropyridin-2-yl]methyl}pyridinium perchlorate]	> 100	2.35	–	–	–	–	–	–	–	inert	IC50 ([3]; Table 2, 72 h exposure): > 100 µg/mL; IC50 [5, 15]: > 100 µg/mL; IC50 ([8]; Table 2, 72 h exposure): > 100 µg/mL; electrooxidation potential [9]: 2.35 V; IC50 ([10]; read-out: NIH3T3 IC50 (NR), Table 2, 24 h exposure): 972 ± 27 µg/mL
CCCCCCCCCCCCCCCCOC(=O)/C=C(\N)C[N+](C)(C)CCCCCC [compound 43, (Z,E)-N-(2-Amino-4-(hexadecyloxy)-4-oxobut-2-en-1-yl)-N,N-dimethylhexan-1-aminium chloride]	3 ± 0.6	–	–	–	–	–	–	–	–	–	IC50 ([3]; Table 3, 72 h exposure): 2 ± 0.2 µg/mL; IC50 ([5]; HT-1080, Table 3, 72 h exposure): 2 ± 0.4 µg/mL; IC50 ([8]; Table 3, 72 h exposure): 1 ± 0.2 µg/mL; LD50 ([12]; NIH3T3 LD50, Table 3, calculated from NIH3T3 IC50 by regression formula): 538 mg/kg; IC50 ([10]; read-out: NIH3T3 IC50 (NR), Table 3, 24 h exposure): 21 ± 6 µg/mL
